{"source": "patent US20180296630A1", "about": "“METHODS AND COMPOSITIONS FOR PREVENTING OR TREATING OPHTHALMIC CONDITIONS” (Stealth BioTherapeutics Corp, priority 2012, published 2018)", "key": {"[1]": {"assay": "Ocular pharmacokinetics and disposition of total radioactivity after topical instillation or subcutaneous dosing", "type": "in vivo, New Zealand White rabbits", "details": "for AUC0-24 h / AUCinf / T1/2 / Tmax: topical instillation 1% solution, 40 μL/eye, total radioactivity; for time post-dosing at which equivalent drug concentration reached a maximum / equivalent drug content at peak concentration, of the total dose administered to the eye: topical instillation", "protocol": "Sixteen New Zealand White rabbits were dosed with a formulation consisting of 10 mg/mL of ^14C-labeled D-Arg-2′,6′-Dmt-Lys-Phe-NH2. Animals were at least twelve weeks old and weighed 2.30-3.43 kg at the time of dosing. Animals were randomized to treatment groups according to Table 7.\nDosing solutions were prepared by combining 14.70 mg (correction factor of 0.782) of non-radiolabeled D-Arg-2′,6′-Dmt-Lys-Phe-NH2, and 17.49 mg (correction factor of 0.770) of ^14C-labeled D-Arg-2′,6′-Dmt-Lys-Phe-NH2, and dissolving in 2.5 mL of 0.01M PBS, pH 7.4 to achieve a concentration of 9.97 mg/mL (1%, free peptide) and a radiolabeled concentration of […]. Three aliquots (100 μL) of dosing solution were brought to a volume of 25 mL with saline. Duplicate 100 μL aliquots of the diluted solutions were quantified for radioactivity by liquid scintillation counting (LSC). […] The dosing solutions were stored at 2-8° C. for up to 24 hours prior to use, or at −70° C. for future use.\nOn Day 1, 40 μL of the 1% (10 mg/mL) D-Arg-2′,6′-Dmt-Lys-Phe-NH2 dosing solution was topically instilled into both eyes of each animal in Groups A-G. Each animal in Groups H-I received a single subcutaneous dose of 0.1 mL/kg (1 mg/kg) of the dosing solution into the dorsal scapular region. At the designated time, each animal was anesthetized and blood was collected via cardiac puncture. Animals were euthanized following cardiac puncture. Approximately 3±0.5 mL of whole blood was collected in a K2EDTA tube. Four aliquots (100 μL) were directly transformed to combustion cones. Blood aliquots were stored at ≤−20° C. until analyzed.\nFor Groups A-G, the right globe and one left globe from each group (N=3 globes) were collected and necropsied. The remaining left eye (except for Group G) was collected for possible 3D-QWBA (Quantitative whole body autoradiography) analysis and the conjunctiva remained intact to the eyes. For Groups H-I, both globes were collected from each animal and necropsied. All eyes designated for necropsy were rinsed with normal saline and aqueous humor samples were collected. The globes were enucleated and frozen in liquid nitrogen and stored at ≤−80° C. prior to dissection. The vitreous humor, cornea, conjunctiva, iris/ciliary body, lens, retina, choroid, and sclera were collected from the appropriate eye, weighed, and stored at ≤−20° C. prior to analysis. Aqueous humor samples were also stored at ≤−20° C. until analyzed.\nAll radioactivity measurements were performed using a Beckman Liquid Scintillation Spectrometer. Two blood aliquots were combusted and two aliquots were reserved for combustion if needed. From each eye, the cornea, conjunctiva, iris/ciliary body, lens, retina, choroid, and sclera from each eye were weighed into combustion cones and combusted. Duplicate aliquots of each aqueous humor sample and each vitreous humor sample were transferred to scintillation vials using Insta-Gel as the scintillation fluid, and the amount of radioactivity was determined."}, "[2]": {"system": "primary human retinal pigment epithelial (RPE) cells", "assay": "Viability of primary RPE cells exposed to tBHP (MTT)", "type": "cell-based", "details": "preincubated 4 h with different concentrations, then tBHP 6 h", "protocol": "Next, the viability of primary RPE cells was tested in the presence of tBHP and various concentrations of D-Arg-2′,6′-Dmt-Lys-Phe-NH2. Cells were plated at 10,000 cells per well in a 96-well plate and cultured for 24 h, then starved for 24 h. After that, cells were exposed to increasing concentrations of tBHP (FIG. 23A), or preincubated for 4 h with different concentrations of D-Arg-2′,6′-Dmt-Lys-Phe-NH2, then stimulated with tBHP for 6 h (FIG. 23B). […] Intracellular ROS production in three groups of RPE cells was also examined using FACS analysis. […] Three different concentration of D-Arg-2′,6′-Dmt-Lys-Phe-NH2 groups were analyzed. The ratio of red to green in 500 μM tBHP for the 3 h group is 1.08, the ratio of red to green in 10 nM D-Arg-2′,6′-Dmt-Lys-Phe-NH2 for 4 h+500 tBHP for 3 h group is 1.25; the ratio of red to green in 100 nM D-Arg-2′,6′-Dmt-Lys-Phe-NH2 for 4 hr+500 μM tBHP for 3 h group is 1.4; and the ratio of red to green in 1 μM D-Arg-2′,6′-Dmt-Lys-Phe-NH2 for 4 h+500 μM tBHP for 3 h group is […]. […] FIG. 33A: Control group, R/G is 3.63±0.24; FIG. 33B: 500 μM tBHP for 3 h group, R/G is 1.08±0.11; FIG. 33C: 1 μM D-Arg-2′,6′-Dmt-Lys-Phe-NH2 for 4 h+500 μM tBHP for 3 h group, R/G is 2.38±0.18. FIG. 33D is a chart comparing the fluorescence ratio for the different groups. *P<0.01, C vs. B."}}, "data": [{"substance": "D-Arg-2′,6′-Dmt-Lys-Phe-NH2", "values": [{"measurement": "AUC0-24 h", "setting": "[1]; aqueous humor", "result": 2600, "unit": "hr*ng-equi/g"}, {"measurement": "AUCinf", "setting": "[1]; aqueous humor", "result": 2680, "unit": "hr*ng-equi/g"}, {"measurement": "T1/2", "setting": "[1]; aqueous humor", "result": 4.60, "unit": "h"}, {"measurement": "Tmax", "setting": "[1]; aqueous humor", "result": 4.0, "unit": "h"}, {"measurement": "radioactivity concentration", "setting": "[1]; blood, 1 hour after subcutaneous dosing (1 mg/kg)", "result": 356, "unit": "ng-equi/g"}, {"measurement": "radioactivity concentration", "setting": "[1]; blood, 2 hours after subcutaneous dosing (1 mg/kg)", "result": 87.9, "unit": "ng-equi/g"}, {"measurement": "AUC0-24 h", "setting": "[1]; blood", "result": 1210, "unit": "hr*ng-equi/g"}, {"measurement": "AUCinf", "setting": "[1]; blood", "result": 1250, "unit": "hr*ng-equi/g"}, {"measurement": "T1/2", "setting": "[1]; blood", "result": 4.36, "unit": "h"}, {"measurement": "Tmax", "setting": "[1]; blood", "result": 2.0, "unit": "h"}, {"measurement": "time post-dosing at which equivalent drug concentration reached a maximum", "setting": "[1]; choroid, lens and retina", "result": 4, "unit": "h"}, {"measurement": "equivalent drug concentration", "setting": "[1]; choroid, 1 hour after subcutaneous dosing (1 mg/kg)", "result": "558±251", "unit": "ng-equi/g"}, {"measurement": "AUC0-24 h", "setting": "[1]; choroid", "result": 1900, "unit": "hr*ng-equi/g"}, {"measurement": "AUCinf", "setting": "[1]; choroid", "result": 2190, "unit": "hr*ng-equi/g"}, {"measurement": "T1/2", "setting": "[1]; choroid", "result": 8.21, "unit": "h"}, {"measurement": "Tmax", "setting": "[1]; choroid", "result": 4.0, "unit": "h"}, {"measurement": "time post-dosing at which equivalent drug concentration reached a maximum", "setting": "[1]; conjunctiva, cornea and sclera", "result": 0.5, "unit": "h"}, {"measurement": "equivalent drug concentration", "setting": "[1]; conjunctiva, 1 hour after subcutaneous dosing (1 mg/kg)", "result": "650±12", "unit": "ng-equi/g"}, {"measurement": "equivalent drug content at peak concentration, of the total dose administered to the eye", "setting": "[1]; conjunctiva", "result": "0.293±0.198", "unit": "%"}, {"measurement": "AUC0-24 h", "setting": "[1]; conjunctiva", "result": "41,400 hr*ng-equi/g"}, {"measurement": "AUCinf", "setting": "[1]; conjunctiva", "result": "56,000 hr*ng-equi/g"}, {"measurement": "T1/2", "setting": "[1]; conjunctiva", "result": 13.6, "unit": "h"}, {"measurement": "Tmax", "setting": "[1]; conjunctiva", "result": 0.5, "unit": "h"}, {"measurement": "equivalent drug concentration", "setting": "[1]; cornea, 1 hour after subcutaneous dosing (1 mg/kg)", "result": 209, "unit": "ng-equi/g"}, {"measurement": "equivalent drug content at peak concentration, of the total dose administered to the eye", "setting": "[1]; cornea", "result": "0.028±0.005", "unit": "%"}, {"measurement": "AUC0-24 h", "setting": "[1]; cornea", "result": "14,000 hr*ng-equi/g"}, {"measurement": "Tmax", "setting": "[1]; cornea", "result": 0.5, "unit": "h"}, {"measurement": "equivalent drug concentration", "setting": "[1]; iris/ciliary body, 1 hour after subcutaneous dosing (1 mg/kg)", "result": "513±2", "unit": "ng-equi/g"}, {"measurement": "AUC0-24 h", "setting": "[1]; iris/ciliary body", "result": 2750, "unit": "hr*ng-equi/g"}, {"measurement": "AUCinf", "setting": "[1]; iris/ciliary body", "result": 3279, "unit": "hr*ng-equi/g"}, {"measurement": "T1/2", "setting": "[1]; iris/ciliary body", "result": 8.81, "unit": "h"}, {"measurement": "Tmax", "setting": "[1]; iris/ciliary body", "result": 4.0, "unit": "h"}, {"measurement": "AUC0-24 h", "setting": "[1]; lens", "result": 2720, "unit": "hr*ng-equi/g"}, {"measurement": "Tmax", "setting": "[1]; lens", "result": 4.0, "unit": "h"}, {"measurement": "equivalent drug concentration", "setting": "[1]; retina, 1 hour after subcutaneous dosing (1 mg/kg)", "result": "336±3", "unit": "ng-equi/g"}, {"measurement": "AUC0-24 h", "setting": "[1]; retina", "result": 1030, "unit": "hr*ng-equi/g"}, {"measurement": "AUCinf", "setting": "[1]; retina", "result": 1160, "unit": "hr*ng-equi/g"}, {"measurement": "T1/2", "setting": "[1]; retina", "result": 7.01, "unit": "h"}, {"measurement": "Tmax", "setting": "[1]; retina", "result": 4.0, "unit": "h"}, {"measurement": "equivalent drug concentration", "setting": "[1]; sclera, 1 hour after subcutaneous dosing (1 mg/kg)", "result": "530±47", "unit": "ng-equi/g"}, {"measurement": "equivalent drug content at peak concentration, of the total dose administered to the eye", "setting": "[1]; sclera", "result": "0.051±0.035", "unit": "%"}, {"measurement": "AUC0-24 h", "setting": "[1]; sclera", "result": 5780, "unit": "hr*ng-equi/g"}, {"measurement": "AUCinf", "setting": "[1]; sclera", "result": 8910, "unit": "hr*ng-equi/g"}, {"measurement": "T1/2", "setting": "[1]; sclera", "result": 18.3, "unit": "h"}, {"measurement": "Tmax", "setting": "[1]; sclera", "result": 0.5, "unit": "h"}, {"measurement": "AUC0-24 h", "setting": "[1]; vitreous humor", "result": 221, "unit": "hr*ng-equi/g"}, {"measurement": "AUCinf", "setting": "[1]; vitreous humor", "result": 253, "unit": "hr*ng-equi/g"}, {"measurement": "T1/2", "setting": "[1]; vitreous humor", "result": 7.50, "unit": "h"}, {"measurement": "Tmax", "setting": "[1]; vitreous humor", "result": 4.0, "unit": "h"}, {"measurement": "cell viability in response to tBHP", "setting": "[2]", "result": "enhanced"}]}]}
